According to ChEMBL document CHEMBL3351875, “Synthesis of Deuterated Benzopyran Derivatives as Selective COX-2 Inhibitors with Improved Pharmacokinetic Properties” (ACS Med Chem Lett, 2014):
Values belong to the compound of their own block, whether it stands above or below them.

Tests used:
Rattus norvegicus [1] = assay: Volume of distribution in Sprague-Dawley rat at 10 mg/kg, po measured during 1 to 24 hrs by LC-MS method; format: ADME, organism-based; design: dose 10 mg/kg, route oral; details: in vivo
[2] = Apparent oral clearance in Sprague-Dawley rat at 5 mg/kg, iv measured during 1 to 24 hrs by LC-MS method; format: ADME, organism-based; design: dose 5 mg/kg, route oral; details: in vivo
[3] = Apparent oral clearance in Sprague-Dawley rat at 10 mg/kg, po measured during 1 to 24 hrs by LC-MS method; format: ADME, organism-based; design: dose 10 mg/kg, route oral; details: Sprague-Dawley, in vivo
[4] = Volume of distribution in Sprague-Dawley rat at 5 mg/kg, iv measured during 1 to 24 hrs by LC-MS method; format: ADME, organism-based; design: dose 5 mg/kg, route intravenous; details: in vivo
Rattus norvegicus [5] = assay: Antiinflammatory activity in orally dosed Sprague-Dawley rat model of carrageenan-induced foot paw edema assessed as reduction in edema by plethysmometry; format: functional, organism-based
Rattus norvegicus [6] = assay: (§1) AUC (0 to infinity) in Sprague-Dawley rat at 5 mg/kg, iv measured during 1 to 24 hrs by LC-MS method; format: ADME, organism-based, Plasma; design: time infinity, dose 5 mg/kg, route intravenous; details: in vivo
[7] = Cmax in Sprague-Dawley rat at 5 mg/kg, iv measured during 1 to 24 hrs by LC-MS method; format: ADME, organism-based; design: dose 5 mg/kg, route intravenous; details: in vivo
Rattus norvegicus [8] = assay: Antinociceptive activity in orally dosed Sprague-Dawley rat model of carrageenan-induced foot paw hyperalgesia assessed as paw withdrawal latency; format: functional, organism-based
Rattus norvegicus [9] = assay: (§2) AUC (0 to infinity) in Sprague-Dawley rat at 10 mg/kg, po measured during 1 to 24 hrs by LC-MS method; format: ADME, organism-based, Plasma; design: time infinity, dose 10 mg/kg, route oral; details: in vivo
Rattus norvegicus [10] = assay: Antiinflammatory activity in orally dosed Sprague-Dawley rat model of carrageenan-induced air pouch inflammation assessed as reduction in PGE2 level by ELISA method; format: functional, organism-based
Rattus norvegicus [11] = assay: Half life in Sprague-Dawley rat at 5 mg/kg, iv measured during 1 to 24 hrs by LC-MS method; format: ADME, organism-based; design: dose 5 mg/kg, route intravenous; details: in vivo
[12] = Oral bioavailability in Sprague-Dawley rat at 10 mg/kg measured during 1 to 24 hrs by LC-MS method; format: ADME, organism-based; details: Sprague-Dawley, in vivo
[13] = molecular target: Prostaglandin G/H synthase 1 (Homo sapiens, UniProt P23219); assay: Inhibition of human recombinant COX1 pre-incubated for 15 mins before fluorometric substrate addition by fluorescence based assay
Rattus norvegicus [14] = assay: AUC (0 to infinity) in Sprague-Dawley rat at 1 mg/kg, iv measured during 1 to 24 hrs by LC-MS method; format: ADME, organism-based, Plasma; design: time infinity, dose 1 mg/kg, route intravenous; details: in vivo
Rattus norvegicus [15] = assay: Oral bioavailability in Sprague-Dawley rat at 2.5 mg/kg measured during 1 to 24 hrs by LC-MS method; format: ADME, organism-based; details: in vivo
[16] = Cmax in Sprague-Dawley rat at 1 mg/kg, iv measured during 1 to 24 hrs by LC-MS method; format: ADME, organism-based; design: dose 1 mg/kg, route intravenous; details: in vivo
Rattus norvegicus [17] = assay: Half life in Sprague-Dawley rat at 1 mg/kg, iv measured during 1 to 24 hrs by LC-MS method; format: ADME, organism-based; design: dose 1 mg/kg, route intravenous; details: in vivo
[18] = Volume of distribution in Sprague-Dawley rat at 1 mg/kg, iv measured during 1 to 24 hrs by LC-MS method; format: ADME, organism-based; design: dose 1 mg/kg, route intravenous; details: in vivo
Rattus norvegicus [19] = assay: Apparent oral clearance in Sprague-Dawley rat at 2.5 mg/kg, po measured during 1 to 24 hrs by LC-MS method; format: ADME, organism-based; design: dose 2.5 mg/kg, route oral; details: in vivo
[20] = Apparent oral clearance in Sprague-Dawley rat at 1 mg/kg, iv measured during 1 to 24 hrs by LC-MS method; format: ADME, organism-based; design: dose 1 mg/kg, route oral; details: in vivo
Rattus norvegicus [21] = assay: AUC (0 to infinity) in Sprague-Dawley rat at 2.5 mg/kg, po measured during 1 to 24 hrs by LC-MS method; format: ADME, organism-based, Plasma; design: dose 2.5 mg/kg, route oral, time infinity; details: in vivo
[22] = molecular target: T1, Prostaglandin G/H synthase 2 (Homo sapiens, UniProt P35354); assay: Inhibition of human recombinant COX2 pre-incubated for 15 mins before fluorometric substrate addition by fluorescence based assay
T1 sequence (P35354 whole entry): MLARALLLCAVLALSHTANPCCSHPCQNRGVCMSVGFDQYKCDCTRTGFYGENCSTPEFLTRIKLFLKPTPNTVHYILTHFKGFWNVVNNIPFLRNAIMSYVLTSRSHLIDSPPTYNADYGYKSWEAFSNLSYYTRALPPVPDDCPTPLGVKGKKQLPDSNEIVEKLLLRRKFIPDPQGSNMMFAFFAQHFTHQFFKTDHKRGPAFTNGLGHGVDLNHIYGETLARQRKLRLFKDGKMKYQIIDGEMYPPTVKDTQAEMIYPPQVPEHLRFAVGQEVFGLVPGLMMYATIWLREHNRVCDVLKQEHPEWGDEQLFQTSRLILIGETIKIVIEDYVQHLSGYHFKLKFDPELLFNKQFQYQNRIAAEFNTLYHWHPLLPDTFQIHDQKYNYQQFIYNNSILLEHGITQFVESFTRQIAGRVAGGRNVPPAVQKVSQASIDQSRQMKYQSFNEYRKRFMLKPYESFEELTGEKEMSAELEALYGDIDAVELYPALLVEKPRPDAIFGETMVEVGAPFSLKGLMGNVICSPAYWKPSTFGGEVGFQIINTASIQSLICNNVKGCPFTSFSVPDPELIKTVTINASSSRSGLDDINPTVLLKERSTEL

Rattus norvegicus [23] = assay: Antiarthritic activity in Lewis rat model of adjuvant-induced arthritis administrated by oral gavage once daily; format: functional
Rattus norvegicus [24] = assay: Tmax in Sprague-Dawley rat at 10 mg/kg, po measured during 1 to 24 hrs by LC-MS method; format: ADME, organism-based; design: dose 10 mg/kg, route oral; details: in vivo
Rattus norvegicus [25] = assay: Half life in Sprague-Dawley rat at 10 mg/kg, po measured during 1 to 24 hrs by LC-MS method; format: ADME, organism-based; design: dose 10 mg/kg, route oral; details: in vivo
[26] = Cmax in Sprague-Dawley rat at 10 mg/kg, po measured during 1 to 24 hrs by LC-MS method; format: ADME, organism-based; design: dose 10 mg/kg, route oral; details: in vivo
[27] = as §1; format: ADME, organism-based, Plasma; design: time infinity, dose 5 mg/kg, route intravenous; details: Sprague-Dawley, plasma
[28] = as §2; format: ADME, organism-based, Plasma; design: time infinity, dose 10 mg/kg, route oral; details: Sprague-Dawley, plasma

Chain of Prostaglandin G/H synthase 1 (P23219 whole entry): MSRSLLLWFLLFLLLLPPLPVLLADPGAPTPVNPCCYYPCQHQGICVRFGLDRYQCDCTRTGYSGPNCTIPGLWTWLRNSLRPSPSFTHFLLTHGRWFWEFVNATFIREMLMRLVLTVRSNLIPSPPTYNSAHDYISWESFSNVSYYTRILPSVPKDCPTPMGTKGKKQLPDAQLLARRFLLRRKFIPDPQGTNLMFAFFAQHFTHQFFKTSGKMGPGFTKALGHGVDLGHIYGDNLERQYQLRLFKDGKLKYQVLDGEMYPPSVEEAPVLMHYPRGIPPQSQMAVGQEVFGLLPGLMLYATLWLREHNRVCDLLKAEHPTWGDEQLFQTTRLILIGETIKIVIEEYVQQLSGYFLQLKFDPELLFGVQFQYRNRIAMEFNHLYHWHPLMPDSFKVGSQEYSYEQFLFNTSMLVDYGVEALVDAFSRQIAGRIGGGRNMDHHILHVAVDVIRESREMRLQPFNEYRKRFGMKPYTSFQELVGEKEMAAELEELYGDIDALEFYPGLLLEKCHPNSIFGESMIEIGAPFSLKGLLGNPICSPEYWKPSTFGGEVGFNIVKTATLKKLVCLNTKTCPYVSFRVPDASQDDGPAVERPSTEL

IC50 [13]: > 100 µM
Compound: [2H]C([2H])([2H])c1cc(Cl)cc2c1O[C@H](C(F)(F)F)C(C(=O)O)=C2

IC50 [13]: > 100 µM
Compound: [2H]C([2H])([2H])c1cc2c(c(C([2H])([2H])[2H])c1Cl)C=C(C(=O)O)[C@@H](C(F)(F)F)O2

AUC (Rattus norvegicus [14]): 14043.753 ng·h/mL | F (Rattus norvegicus [15]): 110.7% | Cmax [16]: 9070 ng/mL | EC50 (Rattus norvegicus [5]): 6.48 mg/kg | t1/2 (Rattus norvegicus [17]): 3.909 h | Vd [18]: 0.404 L/kg | EC50 (Rattus norvegicus [8]): 3.33 mg/kg | EC50 (Rattus norvegicus [10]): 0.45 mg/kg | CL/F (Rattus norvegicus [19]): 1.1 mL/min/kg | CL/F [20]: 1.2 mL/min/kg | AUC (Rattus norvegicus [21]): 38900 µg/L.hr
Compound: [2H]C([2H])([2H])c1cc(Cl)cc2c1OC(C(F)(F)F)C(C(=O)O)=C2 (stereo not given)

IC50 [13]: > 100 µM
Compound: Cc1cc(Cl)c2c(c1)C=C(C(=O)O)C(C(F)(F)F)O2 (stereo not given)

The remaining lines, values behind:

Compound: [2H]C([2H])([2H])c1cc2c(c(C([2H])([2H])[2H])c1Cl)C=C(C(=O)O)C(C(F)(F)F)O2 (stereo not given)
Vd (Rattus norvegicus [1]): 0.26 L/kg | CL/F [2]: 1.32 mL/min/kg | CL/F [3]: 1.43 mL/min/kg | Vd [4]: 0.287 L/kg | EC50 (Rattus norvegicus [5]): 5.18 mg/kg | AUC (Rattus norvegicus [6]): 63759.714 ng·h/mL | Cmax [7]: 38800 ng/mL | EC50 (Rattus norvegicus [8]): 2.77 mg/kg | AUC (Rattus norvegicus [9]): 118331.438 ng·h/mL | EC50 (Rattus norvegicus [10]): 0.47 mg/kg | t1/2 (Rattus norvegicus [11]): 2.525 h | bioavailability [12]: 92.8%

Compound: [2H]C([2H])([2H])c1c(Br)c2c(c(C([2H])([2H])[2H])c1Br)C=C(C(=O)O)C(C(F)(F)F)O2 (stereo not given)
IC50 [13]: > 100 µM

Compound: Cc1c(Br)c(C)c2c(c1Br)OC(C(F)(F)F)C(C(=O)O)=C2 (stereo not given)
IC50 [22]: 0.069 µM | IC50 [13]: > 100 µM

Compound: Cc1ccc(-c2cc(C(F)(F)F)nn2-c2ccc(S(N)(=O)=O)cc2)cc1 [CELECOXIB]
EC50 (Rattus norvegicus [5]): 2.81 mg/kg | ED50 (Rattus norvegicus [23]): 1.57 mg/kg | EC50 (Rattus norvegicus [8]): 5 mg/kg | EC50 (Rattus norvegicus [10]): 0.69 mg/kg

Compound: CC(C)(C)c1cc2c(cc1Cl)C=C(C(=O)O)[C@@H](C(F)(F)F)O2 [TIGEMOCOXIB]
Vd (Rattus norvegicus [1]): 2.314 L/kg | CL/F [2]: 2.67 mL/min/kg | Tmax (Rattus norvegicus [24]): 0.75 h | t1/2 (Rattus norvegicus [25]): 6.68 h | CL/F [3]: 4.03 mL/min/kg | Cmax [26]: 8150 ng/mL | Vd [4]: 1.35 L/kg | AUC(0-inf) [27]: 31300 ng·h/mL | Cmax [7]: 37200 ng/mL | AUC(0-inf) [28]: 42200 ng·h/mL | t1/2 (Rattus norvegicus [11]): 5.78 h | bioavailability [12]: 67.5%
